Consider nine compounds from paper PMC9833666, “Designing and identifying β-hairpin peptide macrocycles with antibiotic potential” (Science Advances, 2023).

The assay has as its system Escherichia coli W3110. In kind it is cell-based. The following applies: for Ec W3110 MIC MH: E. coli W3110, MH medium; for Ec W3110 MIC RPMI: E. coli W3110, RPMI medium.

Like-named read-outs stand apart in the source and are kept apart here. Bridge positions count the residues as written; N and C are the ends. Peptide text beside a SMILES is read from it. Where only a bound is given, the exact number is not on record here.

For `CC(C)C[C@@H]1NC(=O)[C@H](CCC(=O)O)NC(=O)[C@H](CC(C)C)NC(=O)[C@H](CCCCN)NC(=O)[C@H](CC(C)C)NC(=O)[C@H](CCCNC(=N)N)NC(=O)[C@H](CCCNC(=N)N)NC(=O)CNC(=O)[C@H](CCCNC(=N)N)NC(=O)[C@H](CC(=O)O)NC(=O)[C@H](CC(=O)O)NC(=O)[C@H](C(C)C)NC(=O)[C@H](CC(N)=O)NC(=O)[C@H](C(C)C)NC(=O)[C@H](CCCCN)NC(=O)[C@H](C(C)C)NC(=O)[C@H](CCCNC(=N)N)NC(=O)[C@@H](N)CSSC[C@@H](C(=O)O)NC(=O)[C@H](CCC(N)=O)NC1=O` [SyRC-15] (H-CRVKVNVDDRGRRLKLELQC-OH; disulfide 1-20), the “W3110 MIC” value (W3110) was greater than 256 mg/L.
Turning to `CC[C@H](C)[C@@H]1NC(=O)[C@H](CC(=O)O)NC(=O)[C@H]([C@@H](C)CC)NC(=O)[C@H](CCCNC(=N)N)NC(=O)[C@H](C(C)C)NC(=O)[C@H](CCCNC(=N)N)NC(=O)[C@@H](N)CSSC[C@@H](C(=O)O)NC(=O)[C@H](CCC(N)=O)NC(=O)[C@H](CC(C)C)NC(=O)[C@H](CCC(N)=O)NC(=O)[C@H](CC(C)C)NC(=O)[C@H](CCCCN)NC(=O)[C@H](CC(C)C)NC(=O)[C@H](CCCNC(=N)N)NC(=O)[C@H](CCCNC(=N)N)NC(=O)[C@H](CCCNC(=N)N)NC(=O)CNC(=O)[C@H](CC(N)=O)NC(=O)[C@H](CC(N)=O)NC1=O` [SyRC-5] (H-CRVRIDINNGRRRLKLQLQC-OH; disulfide 1-20), the “W3110 MIC” value (W3110) was greater than 256 mg/L.
In turn, `CC[C@H](C)[C@@H]1NC(=O)[C@H](CCCCN)NC(=O)[C@H](CC(C)C)NC(=O)CNC(=O)[C@H](CCCNC(=N)N)NC(=O)[C@H](CCCNC(=N)N)NC(=O)[C@H](CCCNC(=N)N)NC(=O)[C@H](CC(N)=O)NC(=O)[C@H](CC(N)=O)NC(=O)[C@H](CC(C)C)NC(=O)[C@H](CCCNC(=N)N)NC(=O)[C@H](C(C)C)NC(=O)[C@H](CCCNC(=N)N)NC(=O)[C@H](C(C)C)NC(=O)[C@@H](N)CSSC[C@@H](C(=O)O)NC(=O)[C@H](C(C)C)NC(=O)[C@H](CCC(N)=O)NC(=O)[C@H](CC(C)C)NC(=O)[C@H](CO)NC1=O` [SySA-9] (H-CVRVRLNNRRRGLKISLQVC-OH; disulfide 1-20; N-terminus and C-terminus assumed) returned an Ec W3110 MIC MH of 128 mg/L and an Ec W3110 MIC RPMI of 8 mg/L. Also, the “W3110 MIC MH” value (E. coli W3110, standard Mueller-Hinton broth, 37°C, 18-24 h, median of n=3) stood at 128 mg/L. The “W3110 MIC RPMI” value (W3110) came to 8 mg/L.
`CC[C@H](C)[C@@H]1NC(=O)[C@H](CCCNC(=N)N)NC(=O)[C@H](C(C)C)NC(=O)[C@@H](N)CSSC[C@@H](C(=O)O)NC(=O)[C@H](C(C)C)NC(=O)[C@H](CCC(=O)O)NC(=O)[C@H](CC(C)C)NC(=O)[C@H](CO)NC(=O)[C@H](C(C)C)NC(=O)[C@H](CCCCN)NC(=O)[C@H](C(C)C)NC(=O)[C@H](CCCNC(=N)N)NC(=O)[C@H](CCCNC(=N)N)NC(=O)[C@H](CCCNC(=N)N)NC(=O)[C@H](CCCNC(=N)N)NC(=O)[C@H](CC(N)=O)NC(=O)[C@H](CC(N)=O)NC(=O)[C@H](CC(C)C)NC(=O)[C@H](CCCNC(=N)N)NC1=O` [SySA-37] (H-CVRIRLNNRRRRVKVSLEVC-OH; disulfide 1-20; N-terminus and C-terminus assumed) registered an Ec W3110 MIC MH of 32 mg/L and an Ec W3110 MIC RPMI of 8 mg/L. Besides, where the note is “W3110”, the “W3110 MIC MH” value worked out at 32 mg/L and the “W3110 MIC RPMI” value is 8 mg/L.
For the compound `CC[C@H](C)[C@@H]1NC(=O)[C@H](CCCCN)NC(=O)[C@H](CC(C)C)NC(=O)CNC(=O)CNC(=O)[C@H](CCCNC(=N)N)NC(=O)[C@H](CCCNC(=N)N)NC(=O)[C@H](CC(=O)O)NC(=O)[C@H](CC(=O)O)NC(=O)[C@H](C(C)C)NC(=O)[C@H](CCCNC(=N)N)NC(=O)[C@H](C(C)C)NC(=O)[C@H](CCCNC(=N)N)NC(=O)[C@H](C(C)C)NC(=O)[C@@H](N)CSSC[C@@H](C(=O)O)NC(=O)[C@H](C(C)C)NC(=O)[C@H](CCC(N)=O)NC(=O)[C@H](CC(C)C)NC(=O)[C@H](CO)NC1=O` [SyRA-12] (H-CVRVRVDDRRGGLKISLQVC-OH; disulfide 1-20), the “W3110 MIC” value (W3110) was greater than 256 mg/L.
In turn, `CC[C@H](C)[C@@H]1NC(=O)[C@H](CCCNC(=N)N)NC(=O)[C@H](CC(C)C)NC(=O)CNC(=O)[C@H](CCCNC(=N)N)NC(=O)[C@H](CCCNC(=N)N)NC(=O)[C@H](CCCNC(=N)N)NC(=O)[C@H](CC(N)=O)NC(=O)[C@H](CC(N)=O)NC(=O)[C@H](CC(C)C)NC(=O)[C@H](CCCNC(=N)N)NC(=O)[C@H]([C@@H](C)CC)NC(=O)[C@H](CCCNC(=N)N)NC(=O)[C@H](CC(C)C)NC(=O)[C@@H](N)CSSC[C@@H](C(=O)O)NC(=O)[C@H](C(C)C)NC(=O)[C@H](CCC(N)=O)NC(=O)[C@H](CC(C)C)NC(=O)[C@H](CO)NC1=O` [SySA-72] (H-CLRIRLNNRRRGLRISLQVC-OH; disulfide 1-20; N-terminus and C-terminus assumed) showed an Ec W3110 MIC MH of 32 mg/L and an Ec W3110 MIC RPMI of 8 mg/L. Further, for the setting “W3110”, the “W3110 MIC MH” value was 32 mg/L and the “W3110 MIC RPMI” value came out at 8 mg/L.
As for `CC[C@H](C)[C@@H]1NC(=O)[C@H](CCCNC(=N)N)NC(=O)[C@H]([C@@H](C)CC)NC(=O)[C@H](CCCNC(=N)N)NC(=O)[C@@H](N)CSSC[C@@H](C(=O)O)NC(=O)[C@H](CCC(=O)O)NC(=O)[C@H](C(C)C)NC(=O)[C@H](CCC(N)=O)NC(=O)[C@H](CC(C)C)NC(=O)[C@H](CCCNC(=N)N)NC(=O)[C@H](C(C)C)NC(=O)[C@H]([C@@H](C)O)NC(=O)CNC(=O)CNC(=O)CNC(=O)[C@H](CC(N)=O)NC(=O)[C@H](CC(=O)O)NC(=O)[C@H](C(C)C)NC(=O)[C@H](CC(N)=O)NC1=O` [SyRC-12] (H-CRIRINVDNGGGTVRLQVEC-OH; disulfide 1-20), the “W3110 MIC” value (W3110) was greater than 256 mg/L.
The same measure, in the same setting: the same measure for `CC[C@H](C)[C@@H]1NC(=O)[C@H](CC(N)=O)NC(=O)[C@H]([C@@H](C)CC)NC(=O)[C@H](CCCCN)NC(=O)[C@H](C(C)C)NC(=O)[C@H](CCCNC(=N)N)NC(=O)[C@@H](N)CSSC[C@@H](C(=O)O)NC(=O)[C@H](CCC(=O)O)NC(=O)[C@H](C(C)C)NC(=O)[C@H](CCC(=O)O)NC(=O)[C@H](CC(C)C)NC(=O)[C@H](CCCNC(=N)N)NC(=O)[C@H](C(C)C)NC(=O)[C@H](CCCNC(=N)N)NC(=O)[C@H](CCCNC(=N)N)NC(=O)[C@H](CO)NC(=O)CNC(=O)[C@H](CC(N)=O)NC(=O)[C@H](CC(=O)O)NC1=O` [SyRC-2] (H-CRVKINIDNGSRRVRLEVEC-OH; disulfide 1-20): greater than 256 mg/L.
`CC[C@H](C)[C@@H]1NC(=O)[C@H](CCCCN)NC(=O)[C@H](C(C)C)NC(=O)[C@H](CCCNC(=N)N)NC(=O)[C@H](CCCNC(=N)N)NC(=O)[C@H](CCCNC(=N)N)NC(=O)[C@H](CCCNC(=N)N)NC(=O)[C@H](CC(N)=O)NC(=O)[C@H](CC(N)=O)NC(=O)[C@H](CC(C)C)NC(=O)[C@H](CCCNC(=N)N)NC(=O)[C@H](C(C)C)NC(=O)[C@H](CCCNC(=N)N)NC(=O)[C@H](C(C)C)NC(=O)[C@@H](N)CSSC[C@@H](C(=O)O)NC(=O)[C@H](C(C)C)NC(=O)[C@H](CCC(=O)O)NC(=O)[C@H](C(C)C)NC(=O)[C@H](CO)NC1=O` [SySA-65] (H-CVRVRLNNRRRRVKISVEVC-OH; disulfide 1-20; N-terminus and C-terminus assumed) gave an Ec W3110 MIC MH of 64 mg/L and an Ec W3110 MIC RPMI of 16 mg/L. Moreover, where the note is “W3110”, the “W3110 MIC MH” value is 64 mg/L and the “W3110 MIC RPMI” value turned out to be 16 mg/L.
